# According to PubChem BioAssay (NCI):
#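 These data come from cells grown in 96-well plates and exposed to compound for 48 hours at five concentrations. TGI: total growth inhibition.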
# Legend:
# Experiment in all cases: NCI anticancer screen, dose series, 48 h
# [1] = tested on: ACHN renal
# [2] = tested on: CAKI-1 renal
# [3] = tested on: HCC-2998 colon
# [4] = tested on: HOP-92 NSCLC
# [5] = tested on: LOX IMVI melanoma
# [6] = tested on: MOLT-4 leukemia
# [7] = tested on: NCI-H460 lung
# [8] = tested on: OVCAR-3 ovarian
# [9] = tested on: SF-268 CNS
# [10] = tested on: SK-MEL-5 melanoma
# [11] = tested on: SK-OV-3 ovarian
# [12] = tested on: UACC-62 melanoma
# [13] = tested on: DU-145 prostate
# [14] = tested on: MDA-MB-231 breast
# [15] = tested on: NCI/ADR-RES ovarian
# [16] = tested on: SK-MEL-28 melanoma
# [17] = tested on: SNB-19 CNS
# [18] = tested on: TK-10 renal
# [19] = tested on: U251 CNS
Structure (SMILES),TGI [1],TGI [2],TGI [3],TGI [4],TGI [5],TGI [6],TGI [7],TGI [8],TGI [9],TGI [10],TGI [11],TGI [12],TGI [13],TGI [14],TGI [15],TGI [16],TGI [17],TGI [18],TGI [19]
CCOC(=O)N1c2c(ccn2C)-c2ccn(C)c2N1C(=O)OCC,29.6 µM,44.8 µM,37.9 µM,63.7 µM,25.6 µM,40.4 µM,49.3 µM,27.1 µM,38.7 µM,> 100 µM,77.3 µM,31.3 µM,,,,,,,
C=CCN1C(=O)/C(=C\c2cc(C(C)(C)C)c(O)c(C(C)(C)C)c2)NC1=S,90.2 µM,83.3 µM,,> 100 µM,31.6 µM,> 100 µM,36.8 µM,39.6 µM,> 100 µM,30.1 µM,> 100 µM,33.1 µM,90.3 µM,34.9 µM,> 100 µM,> 100 µM,> 100 µM,73.9 µM,32.7 µM
Cc1cccc(C)c1NC(=O)C(=O)CC(=O)/C=C/c1ccccc1,> 100 µM,> 100 µM,> 100 µM,> 100 µM,> 100 µM,> 100 µM,> 100 µM,> 100 µM,> 100 µM,> 100 µM,> 100 µM,> 100 µM,,> 100 µM,> 100 µM,> 100 µM,> 100 µM,> 100 µM,> 100 µM
CC12CCC(C(Nc3cc(C(F)(F)F)cc(C(F)(F)F)c3)C1=O)C2(C)C (configuration not stated),> 100 µM,> 100 µM,> 100 µM,,> 100 µM,> 100 µM,> 100 µM,> 100 µM,> 100 µM,> 100 µM,> 100 µM,> 100 µM,> 100 µM,> 100 µM,> 100 µM,> 100 µM,> 100 µM,> 100 µM,> 100 µM
Cc1c(CCN2CCOCC2)c(N2CCOCC2)n2c(nc3ccccc32)c1C#N,> 10 µM,> 10 µM,,> 10 µM,> 10 µM,> 10 µM,> 10 µM,> 10 µM,> 10 µM,> 10 µM,> 10 µM,> 10 µM,> 10 µM,> 10 µM,> 10 µM,> 10 µM,> 10 µM,> 10 µM,> 10 µM
N#CC1C(=O)SC2c3ccccc3C(=O)c3ccccc3C12 (configuration not stated),> 10 µM,> 10 µM,> 10 µM,,> 10 µM,> 10 µM,> 10 µM,> 10 µM,> 10 µM,> 10 µM,> 10 µM,> 10 µM,> 10 µM,> 10 µM,> 10 µM,> 10 µM,> 10 µM,> 10 µM,> 10 µM
CCN1C(=O)C(=C/C=C/C=C2/N(C)c3ccccc3C2(C)C)C(=O)N(CC)C1=S,> 100 µM,> 100 µM,,> 100 µM,> 100 µM,,> 100 µM,> 100 µM,> 100 µM,,> 100 µM,> 100 µM,> 100 µM,> 100 µM,> 100 µM,,> 100 µM,> 100 µM,
Nn1c(CCCCCCCCc2nnc(COc3ccc4ccccc4c3O)n2N)nnc1COc1ccc2ccccc2c1O,> 100 µM,41.8 µM,67.7 µM,60 µM,,> 100 µM,> 100 µM,,> 100 µM,37.5 µM,> 100 µM,> 100 µM,> 100 µM,76.9 µM,60.7 µM,> 100 µM,> 100 µM,> 100 µM,> 100 µM
O=S(CC1(O)CCCCC1)c1ccccc1 (configuration not stated),> 100 µM,> 100 µM,> 100 µM,,> 100 µM,> 100 µM,> 100 µM,,> 100 µM,> 100 µM,> 100 µM,> 100 µM,> 100 µM,> 100 µM,> 100 µM,> 100 µM,> 100 µM,> 100 µM,> 100 µM
COc1ccc(S(=O)(=O)NC(CCC(=O)NN)C(=O)NN)cc1 (configuration not stated),> 100 µM,> 100 µM,,> 100 µM,> 100 µM,> 100 µM,> 100 µM,> 100 µM,,> 100 µM,> 100 µM,> 100 µM,> 100 µM,> 100 µM,> 100 µM,> 100 µM,> 100 µM,> 100 µM,> 100 µM
Nc1c2ccccc2nc2ccc3c(=O)cc(-c4ccccc4)oc3c12,2.39 µM,2.63 µM,1.9 µM,2.59 µM,,,2.22 µM,2.85 µM,,,3.48 µM,,3.74 µM,2.52 µM,,3.21 µM,,3.52 µM,1.46 µM
c1ccc(N=C(Nc2ccccc2)N2CCCC2)cc1,> 100 µM,> 100 µM,,> 100 µM,> 100 µM,> 100 µM,> 100 µM,> 100 µM,> 100 µM,> 100 µM,> 100 µM,> 100 µM,> 100 µM,,> 100 µM,> 100 µM,> 100 µM,> 100 µM,> 100 µM
C/C=C1\C=C(OC)CN(CCc2c[nH]c3ccccc23)C1,> 100 µM,,33.1 µM,,> 100 µM,> 100 µM,> 100 µM,> 100 µM,95.5 µM,53.3 µM,,> 100 µM,,,,,> 100 µM,> 100 µM,
C1CCCCC2(CCCCCCCCC3(CCC1)OCCO3)OCCO2,> 100 µM,> 100 µM,> 100 µM,> 100 µM,> 100 µM,,> 100 µM,> 100 µM,> 100 µM,> 100 µM,> 100 µM,> 100 µM,> 100 µM,,> 100 µM,> 100 µM,> 100 µM,> 100 µM,> 100 µM
Cc1cc(C)c(S(=O)(=O)N2CCCN(S(=O)(=O)c3c(C)cc(C)cc3C)OCCCO2)c(C)c1,> 100 µM,> 100 µM,,> 100 µM,> 100 µM,> 100 µM,> 100 µM,> 100 µM,> 100 µM,> 100 µM,> 100 µM,> 100 µM,> 100 µM,> 100 µM,> 100 µM,> 100 µM,> 100 µM,> 100 µM,> 100 µM
